Experimental data taken from ChEMBL document CHEMBL1795315, “Syntheses of 2-NBDG analogues for monitoring stereoselective uptake of D-glucose” (Bioorg Med Chem Lett, 2011).

Columns and labels:
Format in all cases: ADME
[1] = Drug uptake in C57BL/6J mouse neuronal cytosol at 100 uM after 1 min by confocal microscopy co-treated with 20 uM 2-TRLG
[2] = Drug uptake in C57BL/6J mouse neuronal cytosol at 20 uM after 1 min by confocal microscopy co-treated with 100 uM 2-NBDLG
[3] = Drug uptake in C57BL/6J mouse neuronal cytosol at 20 uM after 1 min by confocal microscopy co-treated with 100 uM 2-NBDG

| Drug uptake [2] | Drug uptake [3] | SMILES | Drug uptake [1] |
| --- | --- | --- | --- |
| – | – | O=[N+]([O-])c1ccc(N[C@H]2C(O)O[C@H](CO)[C@@H](O)[C@@H]2O)c2nonc12 (stereo partly specified) | Active |
| Active | Not Active | O=S(=O)([O-])c1cc(S(=O)(=O)N[C@@H]2C(O)O[C@@H](CO)[C@H](O)[C@H]2O)ccc1C1=c2cc3c4c(c2Oc2c1cc1c5c2CCCN5CCC1)CCC[N+]=4CCC3 (stereo partly specified) | – |
| Active | Not Active | O=S(=O)([O-])c1ccc(C2=c3cc4c5c(c3Oc3c2cc2c6c3CCCN6CCC2)CCC[N+]=5CCC4)c(S(=O)(=O)N[C@@H]2C(O)O[C@@H](CO)[C@H](O)[C@H]2O)c1 (stereo partly specified) | – |
| – | – | O=[N+]([O-])c1ccc(N[C@@H]2C(O)O[C@@H](CO)[C@H](O)[C@H]2O)c2nonc12 (stereo partly specified) | Not Active |
